Some results are limits rather than exact numbers.

The data set relates to human liver microsomes, metabolic stability half-life. As to the kind of experiment: NCATS Human Liver Microsomal (HLM) Stability Profiling. To be noted: higher = more stable; screened at 1 µM (by protocol). The procedure, abridged: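 Substrate depletion (in vitro t1/2): 1 µM compound with 0.5 mg/mL microsomes and NADPH regenerating system, phosphate buffer pH 7.4, 37 °C. Sampled at 0, 5, 10, 15, 30, 60 min into cold acetonitrile with albendazole internal standard for MS quantification.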
Take `Cc1cnc(NC(=O)c2cc(S(=O)(=O)N(C)C)ccc2N2CCCC2)s1`: the half-life – broadly, the time in which the quantity being followed falls by half – amounted to 24.3 min.

`Cc1ncc(Cl)cc1NCc1ccc(C(=O)NC(CC2CCCC2)C(=O)NC2CC2)s1` (centres undefined) had a half-life of 6.13 min.

Consider `COCCOc1nc(N)c2[nH]c(=O)n(Cc3ccc(C(=O)O)cc3)c2n1`, for which the half-life was > 120 min.

For the molecule `Cc1c(C)n(Cc2ccc(-c3ccccc3C(=O)O)cc2)c2ccc(C(=O)N[C@@H](C)c3ccc([N+](=O)[O-])cc3)cc12`, the half-life was > 120 min.

On to `CN(C)c1ccc2nc3ccc(=[N+](C)C)cc-3sc2c1`, for which the half-life was > 120 min.

The molecule `CCCOc1ccc(-c2nc(OC)c3ccccc3n2)cc1` returned a half-life of 14.7 min.

Molecule `CNC(=O)c1ccccc1Nc1nc(Nc2ccc(N3CCOCC3)cc2OC)ncc1Cl` registered a half-life of 34.9 min.

Turning to `CC(C)CCC(=O)CC1c2ccccc2C(=O)N1c1ccc2ccc(Cl)nc2n1` (centres undefined), the half-life came to 7.76 min.

In the case of `Cc1cc(Nc2nc(N[C@@H](C)c3ccc(F)cc3)c(C#N)cc2F)n[nH]1`, the half-life was > 120 min.

As to `CCN(CC)C(=O)c1ccc(Nc2nc(OCC3CCCCC3)c3[nH]cnc3n2)cc1`, the half-life is 8.96 min.

Consider `COc1cc(NC(=O)Nc2cccc(CNC(=O)O[C@H]3CCOC3)c2)ccc1-c1cnco1`, for which the half-life came out at 27.7 min.

Take `CN(C)[S+](=O)([O-])c1ccc([S+](=O)([O-])N(Cc2ccccc2)Cc2ccccn2)cc1`: the half-life is 4.28 min.

Regarding `COCC1(CO)C(=O)C2CCN1CC2` (centres undefined), the half-life is > 120 min.

`COP(=O)(OC)Oc1ccc([N+](=O)[O-])cc1` displayed a half-life of 13.3 min.

In the case of `CC1CC(C)C(=O)C(C(O)CC2CC(=O)NC(=O)C2)C1` (centres undefined), the half-life is > 120 min.

Consider `Cc1oc(=O)oc1COC(=O)[C@@H]1N2C(=O)[C@@H](NC(=O)[C@H](N)c3ccccc3)[C@H]2SC1(C)C`, for which the half-life came to 12.2 min.

Molecule `CCOc1ccc(-n2c(C(C)N(Cc3cccnc3)C(=O)Cc3ccc(F)c(C(F)(F)F)c3)nc3ncccc3c2=O)cc1` (centres undefined) returned a half-life of 4.89 min.

For `COC(=O)[C@H](Cc1cccc(C(=N)N)c1)[C@@H](C)NC(=O)c1ccc(-c2cc[n+]([O-])cc2)cc1`, the half-life was > 120 min.

`COc1cccc(C(=O)Nc2nc(-c3nnn(-c4ccccc4C(F)(F)F)c3C)ns2)c1`: the half-life is > 120 min.

The molecule `COc1ccccc1CN[C@H]1C2CCN(CC2)[C@H]1C(c1ccccc1)c1ccccc1` came in with a half-life of 35 min.

Molecule `CCC1CCCCN1CC(=O)N1CCCc2c1c(=O)oc1ccc(OCc3ccccc3)cc21` (centres undefined) had a half-life of 0.54 min.

With `C[C@@H](N)[C@@H](O)c1ccccc1`, the half-life came to 92.4 min.

Molecule `CCOc1ccc(S(=O)(=O)NCCc2sc(-c3ccc(C)cc3)nc2C)cc1` showed a half-life of 4.09 min.

On to `CN1CC(=O)N/C1=N/C(=O)Nc1cccc(Cl)c1`, for which the half-life is 24.1 min.

In turn, `CC1CCN(C(c2ccc(F)cc2)c2ccc(C(C)C(=O)O)cc2-c2ccc(C(F)(F)F)cc2)CC1` (centres undefined) displayed a half-life of 115 min.

As to `COc1ccc2c(c1)c(CC(=O)OCC(=O)O)c(C)n2C(=O)c1ccc(Cl)cc1`, the half-life was > 120 min.

For `Cc1cccc(N2CCN(C(=O)c3cn(C4CCCCC4)c(=O)c4c3c3ccccc3n4C)CC2)c1C`, the half-life came out at 0.76 min.

`COc1cc(O)cc(O)c1`: the half-life is > 120 min.

`Cc1cn(C[C@H](N)C(=O)O)c(=O)n(Cc2ccsc2C(=O)O)c1=O` gave a half-life of 53.1 min.

`COc1cc2c(cc1OC)CN(C(=O)[C@H](C)N[C@@H](CCc1ccccc1)C(=O)O)[C@H](C(=O)O)C2`: the half-life is > 120 min.

Consider `CCC(=C(c1ccc(OCCN2CCCC2)cc1)c1ccc(OCCN2CCCC2)cc1)c1ccccc1`, for which the half-life was > 120 min.

`Nc1ccc2cc3ccc(N)cc3nc2c1` showed a half-life of 105 min.

For `Cc1ccc(C(=O)Oc2ccc(C(O)CNC(C)(C)C)cc2OC(=O)c2ccc(C)cc2)cc1` (centres undefined), the half-life turned out to be 2.27 min.

As for `C[C@]12CC[C@@H]3c4ccc(O)cc4CC[C@H]3[C@@H]1C[C@@H](O)[C@@H]2O`, the half-life is > 120 min.

Consider `C[C@H](N)C(=O)N1CCC(n2nccc2NC(=O)Nc2ccccc2Cl)CC1`, for which the half-life was > 120 min.

For `Cc1cccc(C)c1NC(=O)c1ccccc1C(=O)O`, the half-life was > 120 min.

For `c1cncc(CN2CCC(n3ncc4c(N5CCOCC5)nc(-c5ccc6[nH]ccc6c5)nc43)CC2)c1`, the half-life amounted to 14.9 min.

Molecule `CC(C)(C)c1coc([C@@H]2COCCN2Cc2ccc(C(=O)O)cc2)n1` had a half-life of 80.9 min.

`Cc1ccc(S(=O)(=O)NC2CCC(C(C)(C)C)CC2)cc1` (centres undefined) had a half-life of 3.92 min.

Take `Oc1cccc(C2NC(=S)Nc3cccc(F)c32)c1` (centres undefined): the half-life is > 120 min.

Consider `NC(=O)c1nnn(Cc2cc(Cl)c(C(=O)c3ccc(Cl)cc3)c(Cl)c2)c1N`, for which the half-life is > 120 min.

On to `c1ccc2c(c1)CCC[C@H]2C1=NCCN1`, for which the half-life was > 120 min.

For the molecule `NC(=O)c1c(OCc2c(F)cc(Br)cc2F)nsc1NC(=O)NCCCCN1CCCC1`, the half-life was > 120 min.

As to `COc1ccc(-c2cn3cccnc3n2)cc1NC(=O)c1cc(C)cc(C)c1`, the half-life is 20.7 min.

As to `CC(C)(C)C1CCC(CC2=C(O)c3ccccc3C(=O)C2=O)CC1` (centres undefined), the half-life was > 120 min.

`COc1ccc(CCNc2ncnc3c2c(-c2ccccc2)cn3-c2cccc(Cl)c2)cc1OC` came in with a half-life of 3.59 min.

As for `CC(C)(C)c1cnc(CSc2cnc(NC(=O)C3CCNCC3)s2)o1`, the half-life was > 120 min.

In the case of `Nc1ccc(S(=O)(=O)Nc2ccccc2)cc1`, the half-life was > 120 min.

In the case of `COc1cccc2c1C(=O)c1c(O)c3c(c(O)c1C2=O)C[C@@](O)(C(=O)CO)C[C@@H]3O[C@H]1C[C@H](N)[C@H](O[C@@H]2CCCCO2)[C@H](C)O1`, the half-life was > 120 min.

In turn, `CCCCCOc1cc2c(cc1-c1cc(/C=C/C(=O)O)ccc1O)C(C)(C)CCC2(C)C` registered a half-life of 10.8 min.

`CC(C)(C)c1ccc(S(=O)(=O)c2cnc(SCC(=O)Nc3ccc(F)c(Cl)c3)[nH]c2=O)cc1` returned a half-life of 73.1 min.

For `COc1ccc(CCNc2nc(SCc3ccccc3Cl)nc3ccccc23)cc1OC`, the half-life was 7.1 min.

`Nc1cc(=O)[nH]c(N)n1` came in with a half-life of 99.2 min.

Molecule `C=CCc1ccccc1OCC(O)CNC(C)C` (centres undefined) returned a half-life of 22 min.

`COc1cccc(CCc2ccccc2OCC(CN(C)C)OC(=O)CCC(=O)O)c1` (centres undefined) gave a half-life of 38.8 min.

The molecule `Cc1cncn1CCc1nc2c3ccccc3nc(SCC(=O)Nc3cccc(Cl)c3)n2n1` returned a half-life of 11.6 min.

On to `O=C(c1ccccn1)N(Cc1cccs1)C1(C(=O)NC2CCCCC2)CCCCC1`, for which the half-life worked out at 1.6 min.

With `CC1(C)SCCN(S(=O)(=O)c2ccc(OCC#CCO)cc2)[C@@H]1C(=O)NO`, the half-life was > 120 min.

`CC1=C(C(=O)Nc2cccc(-c3cn[nH]c3)c2)C(c2ccccc2Cl)N=C(Nc2nc3ccccc3o2)N1` (centres undefined): the half-life came out at 49.1 min.

The molecule `COc1ccc(Sc2ccc(NC(=O)c3ccccc3Cl)cc2C#N)cc1` showed a half-life of 31.4 min.

For `CC[C@]1(C2=NCCN2)Cc2ccccc2O1`, the half-life is > 120 min.

Turning to `O=C(Cn1ccnc1[N+](=O)[O-])NCc1ccccc1`, the half-life was > 120 min.

`CCC(CC)n1ccc2c(C(=O)NCc3c(C)cc(C)[nH]c3=O)cc(C#N)cc21` displayed a half-life of 3.94 min.

`COc1cc(C(=O)NCC2(N(C)C)CCCC2)cc(OC)c1OCc1ccccc1` had a half-life of 38.3 min.

As to `CN(C(=O)c1ccc(F)cc1C(F)(F)F)C1CCN(c2nnc(-c3ccnn3C)c3ccccc23)CC1`, the half-life was determined as 30.3 min.

The molecule `O=C(O)Cc1sc(-c2ccccc2)nc1-c1ccc(Cl)cc1` registered a half-life of 2.82 min.

Turning to `C[C@]12CC[C@H]3[C@@H](CCC4=CC(=O)CC[C@@]43C)[C@@H]1CC[C@@H]2C(=O)O`, the half-life is > 120 min.

Turning to `C=CC(=O)N1CCN(C(=O)CNc2cc(-c3ccccc3Cl)c(Cl)cc2OC)CC1`, the half-life was 9.86 min.

`Cc1ccccc1C(=O)Nc1ccc(C(=O)N2CCCC(O)c3cc(Cl)ccc32)c(C)c1` (centres undefined): the half-life worked out at 13.9 min.

On to `CCOP(=O)(OCC)Oc1cc(C)nc(C(C)C)n1`, for which the half-life was determined as 99.9 min.

Molecule `COc1cc(C(=O)N2CCCCCCC2)cc(OC)c1OC` yielded a half-life of 29.3 min.

As for `O=C(O)c1ccc(-c2ccc(N3CCCCCC3)nc2)cc1`, the half-life was > 120 min.

Take `Cn1nnc2c(C(N)=O)ncn2c1=O`: the half-life worked out at 21.1 min.

Take `O=C(CCc1nnc2n(Cc3ccc(Cl)cc3)c(=O)c3ccccc3n12)NCCC1=CCCCC1`: the half-life amounted to 1.05 min.

As to `CCNP(=S)(OC)O/C(C)=C/C(=O)OC(C)C` (centres undefined), the half-life is > 120 min.

In the case of `CCOC(=O)c1c(C)nn(-c2cccc([N+](=O)[O-])c2)c1C`, the half-life was determined as 2.08 min.

With `O=C1N(c2ccccc2)c2ccccc2C1(Cc1ccncc1)Cc1ccncc1`, the half-life was 1.71 min.

`CN(C)S(=O)(=O)c1ccc(S(=O)(=O)N(Cc2ccccc2Cl)C[C@@H]2CCCO2)cc1` registered a half-life of 1.28 min.

The molecule `O=C(N[C@H]1CCN(C(=O)c2cc(C(F)(F)F)cc(C(F)(F)F)c2)[C@H](Cc2ccc(Cl)cc2)C1)c1ccnc2ccccc12` showed a half-life of 49.2 min.

In the case of `Cc1c(-c2ccnn2C)cc(C(=O)NCc2ccc(S(C)(=O)=O)cn2)c(=O)n1-c1cccc(C(F)(F)F)c1`, the half-life is > 120 min.

For `Nc1c(I)cc(I)c(C(=O)N(CCC(=O)O)c2ccccc2)c1I`, the half-life is > 120 min.

For `CC(C(=O)O)c1ccc2c(c1)[nH]c1ccc(Cl)cc12` (centres undefined), the half-life is > 120 min.

As for `CCN1CCCC1=O`, the half-life was > 120 min.

Take `CN1CCC(COc2cnc(-c3cccc(Cn4nc(-c5cccc(C#N)c5)ccc4=O)c3)nc2)CC1`: the half-life was > 120 min.

With `CCCCNc1ncc(C(=O)NCc2ccc(-n3ccnc3)cc2)c(NC2CCC(O)CC2)n1` (centres undefined), the half-life was 33 min.

As to `O=C(c1ccc(F)cc1)N1CCC(C(=O)N2CCC(N3Cc4ccccc4C3=O)CC2)CC1`, the half-life was > 120 min.

In the case of `CCN(Cc1ccc(Cl)nc1)/C(=C/[N+](=O)[O-])NC`, the half-life was > 120 min.

Take `CCc1noc(-c2ccc(NCc3ccccc3)c([N+](=O)[O-])c2)n1`: the half-life was 4.39 min.

As to `COc1ccc(Nc2nnc(-c3ccc(C)c(S(=O)(=O)NCc4nc5ccccc5[nH]4)c3)c3ccccc23)cc1`, the half-life amounted to 5.8 min.

Source of the values: PubChem BioAssay AID1963597 (National Center for Advancing Translational Sciences (NCATS), 2024).
